Patent EP0313094A2, “Anticancer agent and reagent for obtaining revertants” (MEIJI SEIKA KAISHA LTD., priority 1987, dated 1989)
“Also recorded” adds a separate entry of the source.

What was measured:
Assay type in all cases: cell-based
[1] = tested on: NIH3T3 cells transformed by an activated melanoma c-H-ras oncogene; experiment: Growth inhibition of transformed NIH3T3 cells (cell counting); conditions: 500 µg/mℓ SF-1346, 37°C, Dulbecco-modified Eagle's medium, 5% bovine serum, initial 1 × 10⁴ cell/mℓ
Procedure: (§1) NIH3T3 cells transformed by an activated melanoma c-H-ras oncogene and normal NIH3T3 cells were incubated at 37°C each in a Dulbecco-modified Eagle's medium containing 5% (v/v) of bovine serum.
(§2) Each medium was adjusted to have an initial cell density of 1 × 10⁴ cell/mℓ and contain SF-1346 at a concentration of 200 µg/mℓ or 500 µg/mℓ. The cells therein were counted with the lapse of time from the first day to the fifth day and from the fourth day to the seventh day of the incubation.

[2] = tested on: NIH3T3 cells transformed with activated c-Ki-ras, N-ras, ret, hst and raf oncogenes; experiment: Growth inhibition of NIH3T3 cells transformed with other oncogenes; conditions: final concentration 500 µg/mℓ
Procedure: (§3) SF-1346 were added to the culture medium of NIH3T3 cells transformed with activated c-Ki-ras, N-ras, ret, hst and raf oncogenes in the same manner as in Example 1 so as to give a final concentration of 500 µg/mℓ.

normal NIH3T3 cells [3] = experiment: Growth inhibition of normal NIH3T3 cells (cell counting); conditions: 500 µg/mℓ SF-1346; same culture conditions
Procedure: as §1, §2, §3

[4] = tested on: SRY1 cells which had been obtained by cancerizing rat fibroblast 3Y1 cells through transfection with an src oncogene; experiment: Growth inhibition of SRY1 cells; conditions: src-transfected rat fibroblast 3Y1 cells; Example 2
normal NIH3T3 cells [5] = experiment: Morphology of normal NIH3T3 cells incubated with the compound; conditions: 500 µg/mℓ; sixth day of incubation
Procedure: (§4) Cell incubation was carried out under the same conditions as those described in Example 1 except that SF-1346 was added to the culture medium so as to give a final concentration of 500 µg/mℓ. […] Namely, these surviving revertants formed flat foci.

[6] = tested on: PSN-1 cells derived from human pancreatic cancer; experiment: Inhibition of the growth of PSN-1 cells and acquirement of revertants
Procedure: PSN-1 cells were incubated at 37°C in RPMI 1640 media each containing 10% (v/v) fetal calf serum and SF-1346 at a concentration of 500 µg/mℓ or 200 µg/mℓ. An initial cell density was adjusted to 1 × 10⁴ cells/mℓ. The cells were counted with the lapse of time from the fourth day to the eighth day after the initiation of the incubation.

transformed NIH3T3 cells = experiment: Acquirement of revertants from transformed NIH3T3 cells (morphology, inverted microscope); conditions: 500 µg/mℓ; sixth day of incubation; inverted microscope 100 × magnification
Procedure: as §4
Then, the revertants were isolated by selecting cell clusters forming flat foci by […]. After repeating this procedure several times, the desired revertants were isolated.

## N[C@@H](Cc1ccc(O)cn1)C(=O)O [SF-1346, L-β-(5-hydroxy-2-pyridyl)alanine]
[1]
  growth of the transformed NIH3T3 cells: inhibit the growth; also recorded: selectively inhibits the growth
[2]
  growth of the transformed NIH3T3 cells: inhibited the growth
Normal NIH3T3 cells [3]
  growth of the normal NIH3T3 cells: did not inhibit; also recorded: does not inhibit the growth
[4]
  growth of SRY1 cells: completely inhibited the growth
Normal NIH3T3 cells [5]
  morphological change of normal cells: no morphological change was observed
[6]; 200 µg/mℓ, PSN-1 cells
  cells converted into flat revertants: 85%
  cells killed: 15%
  growth of the cancer cells: completely inhibiting the growth
[6]; 500 µg/mℓ, RPMI 1640, 10% fetal calf serum, counted fourth to eighth day
  killing of PSN-1 cells: completely killed
Transformed NIH3T3 cells
  morphological observation of transformed cells (revertant formation): the transformed cells partially died and the selectively surviving cells were morphologically similar to the normal NIH3T3 cells
